In US20250345439A1, “CHONDROITIN SULFATE BIOGENIC POLYAMINE COMPLEX, PREPARATION METHOD THEREOF AND USE THEREOF” (priority 2022, published 2025):

System: rat rheumatoid arthritis model
[1] = venous blood, day 14 after administration

Compound: CN(Cc1cnc2nc(N)nc(N)c2n1)c1ccc(C(=O)N[C@@H](CCC(=O)O)C(=O)O)cc1 [MTX, methotrexate]
- degrees of swelling in the toes of rats (CSX of Example 2 200 mg/kg gavage daily, MTX 0.2 mg/kg gavage every other day): showed the desired effect of inhibiting toe swelling
- CT of ankle joint parts of rats (CSX of Example 2, MTX positive control): the degree of joint injury was more serious than that in the rats of the drug group (CSX)
- bone surface (BS) of the ankle joint (CT): decreased significantly
- absolute leukocyte count vs model group [1]: no statistical difference
- absolute lymphocyte count vs model group [1]: significantly decreased
- absolute neutrophil count vs model group [1]: significantly decreased
